Consider 23 molecules from ChEMBL document CHEMBL5241112, “Insights into the recent progress in the medicinal chemistry of pyranopyrimidine analogs” (RSC Med Chem, 2022).

SMILES strings stand for the structures. Converted amounts (≈) assume the structure as drawn.

In one assay the test system is Aspergillus ochraceus. Description: Antifungal activity against Aspergillus ochraceus assessed as diameter of inhibition zone by disc diffusion method. It counts as functional.
The test system of the next assay is Penicillium chrysogenum. In words: Antifungal activity against Penicillium chrysogenum assessed as diameter of inhibition zone by disc diffusion method. It counts as functional. (A growth-free zone around the sample is the usual read-out of agar diffusion tests.)
A short description of assay [1]: Antioxidant activity assessed as hydroxyl radical scavenging activity incubated for 5 mins by spectrophotometric analysis. The assay is classed as functional. Details: concentration or dose not given beside the values.
Assay [2] is described as follows: Antioxidant activity assessed as DPPH radical scavenging activity incubated for 20 mins by spectrophotometric analysis. The assay is classed as functional. Details: concentration or dose not given beside the values. (The DPPH test is a chemical assay of radical scavenging.)
Assay [3] concerns MCF7. In words: cells. Conditions: Homo sapiens, MCF7, 48 h.
Assay [4] can be described thus: Inhibition of porcine pancreatic alpha-amylase preincubated for 10 mins followed by substrate starch addition and measured after 10 mins by colorimetric analysis. Also on record: species or system Sus scrofa.
In a further assay the target is Albumin (Bos taurus, UniProt P02769). Description: […] bovine serum albumin denaturation incubated for 23 mins by UV-Visible spectrophotometry.
Sequence of Albumin (P02769 whole entry): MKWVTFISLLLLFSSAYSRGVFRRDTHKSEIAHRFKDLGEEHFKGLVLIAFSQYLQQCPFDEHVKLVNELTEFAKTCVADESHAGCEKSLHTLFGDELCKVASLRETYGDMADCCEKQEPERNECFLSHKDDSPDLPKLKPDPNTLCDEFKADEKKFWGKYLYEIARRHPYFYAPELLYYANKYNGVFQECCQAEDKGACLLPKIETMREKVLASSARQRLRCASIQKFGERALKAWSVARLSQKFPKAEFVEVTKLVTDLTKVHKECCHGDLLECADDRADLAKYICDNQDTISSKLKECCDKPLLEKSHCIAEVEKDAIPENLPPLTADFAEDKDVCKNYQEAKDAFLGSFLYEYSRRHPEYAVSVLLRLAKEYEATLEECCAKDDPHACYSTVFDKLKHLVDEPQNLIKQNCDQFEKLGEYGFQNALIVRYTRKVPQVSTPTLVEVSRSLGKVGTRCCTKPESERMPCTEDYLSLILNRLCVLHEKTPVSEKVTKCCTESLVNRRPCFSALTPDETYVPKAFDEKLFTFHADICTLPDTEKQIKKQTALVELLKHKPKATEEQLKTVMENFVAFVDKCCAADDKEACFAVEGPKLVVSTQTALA
For the next assay, the target named is Alpha-glucosidase (Saccharomyces cerevisiae S288c, UniProt P53341+P38158+P07265). Description: Inhibition of Saccharomyces cerevisiae alpha-glucosidase preincubated for 5 mins followed by PNP-GLUC substrate addition and measured after 20 mins by spectroscopic analysis. It counts as protein assay.
Assay [5] concerns Staphylococcus aureus. In words: Antibacterial activity against Staphylococcus aureus assessed as bacterial growth inhibition by broth microdilution method. It counts as functional.
Assay [6] relates to Pseudomonas aeruginosa. Description: Antibacterial activity against Pseudomonas aeruginosa assessed as bacterial growth inhibition by broth microdilution method. It counts as functional.
In assay [7] the test system is Escherichia coli. Description: Antibacterial activity against Escherichia coli assessed as bacterial growth inhibition by broth microdilution method. The assay is classed as functional.
Assay [8] has as its system Klebsiella pneumoniae. In words: Antibacterial activity against Klebsiella pneumoniae assessed as bacterial growth inhibition by broth microdilution method. The assay is classed as functional. In general terms: Broth dilution looks for growth in wells or tubes with falling amounts of substance.
The species entered for a further assay is Homo sapiens. In words: Anticoagulant activity in human plasma assessed as activated partial thromboplastin time at 1000 ug/ml incubated for 4 mins. The assay is classed as functional. Conditions: dose 1000 µg/ml.
Assay [9] deals with Staphylococcus aureus. Description: Antibacterial activity against Staphylococcus aureus NCIM 2654 assessed as diameter of inhibition zone incubated for 24 hrs by agar well diffusion method. The assay is classed as functional.
Another assay concerns HepG2. Description: Anticancer activity against human HepG2 cells assessed as reduction in cell viability. It counts as functional, cell-based.
The subject of assay [10] is MCF7. In words: Anticancer activity against human MCF7 cells assessed as reduction in cell viability. It counts as functional, cell-based.
Assay [11] has as its system HCT-116. Description: cells. The conditions noted are these: Homo sapiens.
Assay [12] concerns Mycobacterium tuberculosis. Description: Antitubercular activity against Mycobacterium tuberculosis H37Rv assessed as bacterial growth inhibition incubated for 24 hrs by MABA assay. It counts as functional.
In assay [13] the test system is Staphylococcus aureus. Description: Antibacterial activity against Staphylococcus aureus assessed as diameter of inhibition zone. The assay is classed as functional.
In assay [14] the test system is Klebsiella pneumoniae. Description: Antimicrobial activity against Klebsiella pneumoniae UC57 assessed as diameter of inhibition zone at 20 mg/ml incubated for 24 hrs by disk diffusion method. The assay is classed as functional. The conditions noted are these: read-out: DIZ.
Another assay relates to Salmonella typhimurium. In words: Antibacterial activity against Salmonella typhimurium assessed as diameter of inhibition zone. It counts as functional, Salmonella enterica subsp. enterica serovar Typhimurium.
Another assay deals with Bacillus subtilis. Description: Antibacterial activity against Bacillus subtilis assessed as diameter of inhibition zone. It counts as functional.
Assay [15] concerns Escherichia coli. Description: Antimicrobial activity against Escherichia coli ATCC 14169 assessed as diameter of inhibition zone at 20 mg/ml incubated for 24 hrs by disk diffusion method. It counts as functional. The conditions noted are these: read-out: DIZ.
Assay [16] relates to Staphylococcus aureus. In words: Antimicrobial activity against Staphylococcus aureus NCTC7447 assessed as diameter of inhibition zone at 20 mg/ml incubated for 24 hrs by disk diffusion method. The assay is classed as functional. Conditions: read-out: DIZ.
In the next assay the test system is Bacillus cereus. In words: Antimicrobial activity against Bacillus cereus ATCC14579 assessed as diameter of inhibition zone at 20 mg/ml incubated for 24 hrs by disk diffusion method. It counts as functional. The conditions noted are these: read-out: DIZ.
Assay [17] deals with Escherichia coli. In words: Antibacterial activity against Escherichia coli assessed as diameter of inhibition zone. The assay is classed as functional.
For assay [18], the system named is Pseudomonas aeruginosa. Description: Antimicrobial activity against Pseudomonas aeruginosa ATCC 27853 assessed as diameter of inhibition zone at 20 mg/ml incubated for 24 hrs by disk diffusion method. Conditions: read-out: DIZ. The assay is classed as functional.
Assay [19] is described as follows: Antioxidant activity assessed as DPPH radical scavenging activity at 12 ug incubated for 30 mins by spectrophotometric analysis. Conditions: dose 12.0 µg. It counts as functional.
The test system of assay [20] is HCT-116. Description: Anticancer activity against human HCT-116 cells assessed as reduction in cell viability incubated for 96 hrs by MTT assay. It counts as functional, cell-based. Conditions: HCT-116, 96 h.

In the case of `COc1ccc(C2c3c(nc[nH]c3=O)Oc3ccc4cc(Br)ccc4c32)cc1` (stereo not given), the “diameter of the inhibition zone (DIZ)” value is 17 mm in the assay with Aspergillus ochraceus and 13 mm in the assay on Penicillium chrysogenum.

For the molecule `COc1ccc(C2c3[nH]c(=O)[nH]c(=O)c3Oc3c2c(=O)oc2ccccc32)c(O)c1` (stereo not given), the Activity in [1] turned out to be 54.3%; in assay [2], 59.1%.

As usually defined, the IC50 is the concentration at which inhibition is half-maximal. In the case of `COc1cc(C2CC(=O)Oc3[nH]c(=O)[nH]c(=O)c32)cc(OC)c1OC` (stereo not given), in the assay on MCF7 [3], the IC50 came out at 8.9 µM.

For `COc1cc(C2C(C(=O)N3CCCCC3)=C(c3ccccc3O)Oc3[nH]c(=S)[nH]c(=O)c32)ccc1O` (stereo not given), the IC50 in assay [4] was 22.6 µM; against Albumin it was 23.3 µM; at Alpha-glucosidase, 4862 µM.

The MIC is the lowest concentration that inhibits growth of the organism. For `CCO/C=N/C1=C(C#N)C(c2ccccc2OC)c2c(n(C)c(=O)n(C)c2=O)O1` (stereo not given), the MIC in the assay on Staphylococcus aureus [5], in the assay with Pseudomonas aeruginosa [6], in the assay with Escherichia coli [7] and with Klebsiella pneumoniae [8] was 6.25 mg/L (≈ 15.8 µM) in each case.

Take `CC1(C)CC(=O)C2=C(C1)Oc1ncn3ncnc3c1C2c1ccccc1` (stereo not given): the Time in the assay filed under Homo sapiens was found to be 59.4 s.

With `CC1(C)CC(=O)C2=C(C1)Oc1ncn3nc(CC#N)nc3c1C2c1ccccc1` (stereo not given), in the assay listed under Homo sapiens, the Time worked out at 63.4 s.

For the molecule `Cc1n[nH]c2c1C(c1ccccc1O)c1c([nH]c(=O)[nH]c1=O)O2` (stereo not given), the “diameter of the inhibition zone (DIZ)” value in the assay on Staphylococcus aureus [9] amounted to 14 mm.

For `O=C(C1=C(c2ccccc2O)Oc2[nH]c(=S)[nH]c(=O)c2C1c1cc2ccccc2cc1O)N1CCCCC1` (stereo not given), the IC50 in assay [4] was 6.49 µM; against Albumin, 20.1 µM; against Alpha-glucosidase, 5337 µM.

Turning to `COc1ccc(C2c3c([nH]c(=O)[nH]c3=O)Oc3ncn(-c4ccccc4N)c(=N)c32)cc1` (stereo not given), the IC50 is 2.09 µM in the assay on HepG2, 2.43 µM in the assay on MCF7 [10] and 2.61 µM with HCT-116 [11].

As for `O=c1[nH]c2c(c(=O)[nH]1)Oc1c(c(=O)oc3ccccc13)C2c1ccc(F)cc1` (stereo not given), the Activity in [1] was 62.1%; in assay [2] it was 70.1%.

For the molecule `CN[C@@H]1[C@H](O[C@H]2[C@H](O[C@H]3[C@H](O)[C@@H](O)[C@H](N=C(N)N)[C@@H](O)[C@@H]3N=C(N)N)O[C@@H](C)[C@]2(O)C=O)O[C@@H](CO)[C@H](O)[C@H]1O` [STREPTOMYCIN], the MIC in assay [12] stood at 6.25 mg/L (≈ 10.7 µM). The “diameter of the inhibition zone (DIZ)” value worked out at 16 mm with Staphylococcus aureus [13], 18 mm in the assay on Salmonella typhimurium, 18 mm with Bacillus subtilis and 20 mm in the assay on Escherichia coli [17]. The zone of inhibition at 20000 µg/mL with Klebsiella pneumoniae [14] was 18 mm; in the assay on Escherichia coli [15], 18 mm; with Staphylococcus aureus [16], 18 mm; in the assay with Bacillus cereus, 16 mm; in the assay on Pseudomonas aeruginosa [18], 16 mm.

As for `COc1ccc(-n2cnc3c(c2=N)C(c2ccccc2)C2=C(CC(C)(C)CC2=O)O3)cc1` (stereo not given), the Time in the assay filed under Homo sapiens was found to be 57 s.

Consider `Cc1n[nH]c2c1C(c1ccncc1)c1c([nH]c(=O)[nH]c1=O)O2` (stereo not given), for which the Activity in [19] was 59%.

As to `COc1ccc2c(-c3nc4c5c(ncn4n3)OC3=C(C(=O)CC(C)(C)C3)C5c3ccccc3)cc(=O)oc2c1` (stereo not given), the Time in the assay listed under Homo sapiens stood at 55.1 s.

Regarding `CN[C@@H]1C[C@H]2O[C@@](C)([C@@H]1OC)n1c3ccccc3c3c4c(c5c6ccccc6n2c5c31)C(=O)NC4` [STAUROSPORINE], in the assay with HCT-116 [20], the IC50 amounted to 6.94 µM.

For `CCO/C=N/C1=C(C#N)C(c2ccc(OC)cc2)c2c(n(C)c(=O)n(C)c2=O)O1` (stereo not given), the MIC with Staphylococcus aureus [5], with Pseudomonas aeruginosa [6], in the assay with Escherichia coli [7] and in the assay with Klebsiella pneumoniae [8] was 6.25 mg/L (≈ 15.8 µM) each time.

For `Cc1cccc(-n2cnc3c(c2=N)C(c2ccccc2)C2=C(CC(C)(C)CC2=O)O3)c1` (stereo not given), the Time in the assay listed under Homo sapiens is 53.7 s.

In the case of `CCO/C=N/C1=C(C#N)C(c2ccc(OC)cc2)c2c([nH]c(=O)[nH]c2=O)O1` (stereo not given), the figures for the IC50 in the assay on HepG2, with MCF7 [10] and in the assay with HCT-116 [11] were 2.09 µM, 2.43 µM and 2.61 µM, respectively.

Regarding `CC1(C)CC(=O)C2=C(C1)Oc1ncn(-c3cccc(Cl)c3)c(=N)c1C2c1ccccc1` (stereo not given), the Time in the assay listed under Homo sapiens is recorded as 54.8 s.

In [4], `C[C@H]1O[C@H](O[C@H]2[C@H](O)[C@@H](O)[C@@H](O[C@H]3[C@H](O)[C@@H](O)C(O)O[C@@H]3CO)O[C@@H]2CO)[C@H](O)[C@@H](O)[C@@H]1N[C@H]1C=C(CO)[C@@H](O)[C@H](O)[C@H]1O` (stereo not given in full) [ACARBOSE] gave an IC50 of 0.214 µM.

With `NC(=O)c1cnccn1` [PYRAZINAMIDE], the MIC in assay [12] was determined as 3.12 mg/L (≈ 25.4 µM).

With `COc1ccc(C2c3c(ncn(C)c3=N)Oc3ccc4cc(Br)ccc4c32)cc1` (stereo not given), the “diameter of the inhibition zone (DIZ)” value in the assay with Aspergillus ochraceus is on record as 17 mm; in the assay on Penicillium chrysogenum, 13 mm.
